The values below come from patent US20230137849A1, “USE OF A COMPOUND OF THE DIURETICS CLASS FOR TREATING CANCER” (AZELEAD, priority 2017, published 2023).

In one series the test system is 4T1 cells. The class given is cell-based, mouse. The note with it: FIG. 8. The protocol:
The cytotoxicity tests are carried out in cell culture in 96-well plates, on the 4T1 cell line. The cells are maintained in a DMEM culture medium supplemented with 10% fetal calf serum (control condition) or placed in the presence of an MTT solution (3-(4,5-dimethylthiazol-2-yl)-2,5-diphenyl tetrazolium bromide) at 1 mg/ml in DMEM medium supplemented with 10% fetal calf serum (100 μl per well). The cells are incubated at 37° C. and 5% CO2 for 4 hours. The reaction is stopped by the addition of 100 μl of a solution containing 10% of SDS and 0.01 M of HCl. The cells are placed in an incubator at 37° C. and 5% CO2 for 2 hours. The absorbance is measured between 570 and 590 nm. The negative control is performed on a well without cells, containing 200 μl of a 1 mg/ml solution of MTT diluted in DMEM culture medium supplemented with 10% fetal calf serum. The average of the measurements obtained is compared with the control wells: (average value of the compounds treated/average value of the controls)*100=% of the average value.
The 4T1 cells are derived from tumors of the mammary gland in mice.
In order to study the cytotoxic effects of althiazide in vitro, we analyze the cell death induced by treatment with althiazide by tetrazolium salt labeling MTT (3-(4,5-dimethylthiazol-2-yl)-2,5-diphenyltetrazolium bromide) on 4T1 cells. The amount of living cells in the well is assayed by spectrometry. The results are compared with those obtained after treatment with the control solution (FIG. 8). In this test, we observe a very low mortality of cells after treatment with althiazide (80% of living cells at the highest dose 100 μM). Cells treated with dasatinib have a much higher mortality rate, at much lower doses (80% live cells at the lowest 10 nM dose and 20% live cells at 100 μM).

For the next series, the system named is zebrafish embryo. The settings on record: in vivo. The protocol: The toxicity study is carried out over 72 hours. The embryos are treated at 25 hpf with the doses used for the test of chemical compounds of each of the compounds, in a 96-well plate, in a final volume of 100 μl of the embryonic growth medium. The embryos are incubated 72 h at 28° C. The medium is changed every 24 hours. The survival rate of embryos and the appearance of developmental defects are analyzed daily.
At the same time, we analyzed the toxicity of althiazide after balancing with a solution containing althiazide at concentrations of 1 μM, 10 μM, 100 μM, 1000 μM for 24, 48 and 72 hours. The toxicity study was based on analysis of the percentage viability of the embryos after treatment. At concentrations of 1 μM, 10 μM and 100 μM, althiazide causes no toxicity even after 72 hours of treatment. A 50% toxicity is observed after treatment for 24 hours, the althiazide at the concentration of 1 mM.

Each structure is given as a SMILES string. Like-named read-outs stand apart in the source and are kept apart here.

With `Cc1nc(Nc2ncc(C(=O)Nc3c(C)cccc3Cl)s2)cc(N2CCN(CCO)CC2)n1` [dasatinib], the “living cells (MTT)” value is given as 20% with 4T1 cells (highest dose 100 μM) and 80% in the series on 4T1 cells (lowest dose 10 nM). Besides, the “toxicity on the embryo in comparison with althiazide doses” value in the series with zebrafish embryo is reported as “very high toxicity”.
